This is an account of results in patent US10441787B2, “Neuromodulation device” (GALVANI BIOE[…], priority 2015, dated 2019).

“Also recorded” adds a separate entry of the source.

The assay concerns guinea pig airway smooth muscle tone. Put plainly: In-vivo model of baseline airway smooth muscle tone. The following applies: anesthetized guinea pigs; atropine delivered selectively to the trachea via Krebs buffer perfusion; isometric tension of tracheal rings 6 and 7. Also on record: dose or concentration left out as unconfirmed. The text has this: FIG. 10: Schematic illustration of the method for assessing vagally-mediated baseline airay smooth muscle tone in anesthetized guinea pigs. (As described in, Mazzone and Canning, Curr. Protoc. Pharmacol. 2002. May 1; Chapter 5: Unit 5.26.)
Methods for studying vagally-mediated bronchospasm in anesthetized guinea pigs have been described in detail elsewhere (Mazzone and Canning, Curr Protoc Pharmacol. 2002 May 1; Chapter 5:Unit 5.26; Auton Neurosci. 2002 Aug. 30; 99(2):91-101) and shown in FIG. 10. Guinea pigs are anesthetized with urethane (1.5 g/kg ip). The trachea and vagus nerves are visualized by a midline incision in the neck. The trachea is cannulated and connected to a constant volume ventilator (6 mL/kg body weight). The animals are then paralyzed with succinylcholine (2.5 mg/kg sc). An artery and vein are cannulated to monitor cardiovascular parameters and for drug delivery. The vagus nerves are placed on bipolar electrodes. […] Bronchospasm is recorded as a percentage increase in pulmonary inflation pressure.
Using the method illustrated in FIG. 10, the portion of the trachea where isometric tension was measured (rings 6 and 7 caudal to the larynx) was perfused with warmed (37° C.), oxygenated Krebs buffer, which was used for selective delivery of atropine ([…]) to the trachea. […]

Consider `CN1[C@@H]2CC[C@H]1C[C@@H](OC(=O)C(CO)c1ccccc1)C2` (stereo partly shown) [atropine], for which the “baseline airway smooth muscle tone” value is given as “decrease in baseline airway smooth muscle tone; also recorded: Inhibition of guinea pig airway smooth muscle tone”.
